Where a name gives a salt, the structure may show the parent alone. Some results are limits rather than exact numbers.

One may read the IC50 as the concentration that gives 50% inhibition. The melting point is the temperature, or range, at which the solid turns liquid.

For series [1], the system named is Human Adarotene-resistant NCI-H460 (R9A) NSCLC. Kind of series: Anti-proliferative activity, H460-R9A, 24 h + 48 h recovery, SRB. The class given is cell-based. The settings on record: 24 h exposure, read-out: IC50 ± SD H460-R9A. As for the experimental part: (§1) Tumor cells were exposed for 24 h to new atypical retinoids (AR) and the anti-proliferative activity assessed upon 48 h recovery in drug-free medium with the SRB assay. RI=Resistance Index (ratio between the IC50 values of resistant and sensitive cells).

The subject of a further series is MM487-Luc mesothelioma. The series can be described thus: Anti-proliferative activity, MM487-Luc, 24 h + 48 h recovery, SRB. The class given is cell-based. Conditions: Homo sapiens, 24 h exposure, read-out: IC50 ± SD MM487-Luc. As for the experimental part:
as §1

The test system of a further series is U87MG glioblastoma cells. Kind of series: Anti-proliferative activity, U87MG, 24 h + 48 h recovery, SRB. The class given is cell-based. Conditions: Homo sapiens, U-87 MG, 24 h exposure, read-out: IC50 ± SD U87MG. As for the experimental part: as §1
Series [2] has as its system Human Adarotene-resistant NCI-H460 (R9A) NSCLC. The settings on record: Zuco V. et al, Neoplasia 2005; cited from earlier work.
For series [3], the system named is H460-R9A retinoid resistant cells. The series can be described thus: H460-R9A lung cancer subcutaneous xenograft in mice. The settings on record: Cisplatin 4 mg/kg IV q7dx4w, MIR002 50 mg/kg OS bid, qdx5/wx4w.
Procedure: CD-1 nude and NOG mice, females, 4-5 weeks-old, were housed under specific-pathogen-free conditions in individually ventilated cages.
Cells were cultured in appropriated media and expanded in a 37° C. incubator with saturated humidity and an atmosphere of 95% air and 5% CO2, and were sub-cultured every 2-3 days. Before the injection in mice, cells were checked with MycoAlert® Mycoplasma Detection Kit (Lonza) to exclude mycoplasma contamination, counted by trypan blue dye exclusion, evaluated for cell viability (>95%).
H-460-R9A lung cancer cells were suspended at a concentration of 25×10^6/ml. 5×10^6 tumor cells were suspended in 0.2 ml of M199, then inoculated subcutaneously on the right flank of each animal.
MIR002 was dissolved to a concentration of 3.3 mg/mL in 10% DMSO, 5% ethanol, 20% Kolliphor® EL and 65% Na2CO3 10 mM pH 11 and administered by gavage; Cisplatin was dissolved to a concentration of 0.8 mg/mL in sterile saline solution and administered intravenously.
Four days after inoculation, tumor masses of H460-R9A were measured in length and width using a Mitutoyo caliper, mice were sorted basing on tumor volume (TV) and treatments were started. Tumor volume was calculated as follows: TV (mm3)=(Length (mm)×Width (mm)2)/2. Tumor growth was followed by biweekly measurements. Tumor Growth Inhibition (TGI) for each group was calculated as follows: TGI (%)=100−(mean TVtreated/mean TVcontrol×100). Mice were weighed twice a week.
The test system of the next series is Human NCI-H460 NSCLC. Kind of series: Anti-proliferative activity, NCI-H460, 72 h, SRB. The class given is cell-based. The settings on record: for IC50: Homo sapiens, NCI-H460, chronically exposed 72 h, SRB (Table 2), read-out: IC50 ± SD. As for the experimental part:
The anti-proliferative activity of the POLA1/HDAC dual inhibitors MIR002 and GEM144 was assessed on various cell lines from solid and hematological cancers.
Human tumor cells were treated with POLA1/HDAC dual inhibitors and cell survival assessed upon 72 h with the SRB assay. HDAC=Histone Deacetylase. POLA1=DNA Polymerase Alpha 1. RI=Resistance Index.

For series [4], the system named is parent A2780 ovarian cancer cell line. Kind of series: Anti-proliferative activity, A2780, 24 h + 48 h recovery, SRB. Conditions: Homo sapiens, 24 h exposure, read-out: IC50 ± SD A2780. The class given is cell-based. As for the experimental part: as §1
Series [5] deals with A2780-Dx multidrug-resistant ovarian cancer cell line. Kind of series: Anti-proliferative activity, A2780-Dx, 24 h + 48 h recovery, SRB. The class given is cell-based, Human. The settings on record: for RI (Resistance Index, ratio between the IC50 values of resistant and sensitive cells): A2780-Dx vs A2780, 24 h exposure; for IC50: Homo sapiens, A2780/DX, 24 h exposure, SRB, read-out: IC50 ± SD A2780-Dx. On the procedure:
as §1
As described by Zuco V. et al in Neoplasia, 2005 July; 7(7):667-77, H460-R9A are about 70 fold resistant with respect to parental H460 to Adarotene. […] Ovarian cancer A2780 and its clone derivative A2780DX (Doxorubicin resistant) which overexpress P-glycoprotein (PGP), were used to evaluate the possibility of these new molecules to be absorbed at intestinal level. In fact, the overexpression of PGP, as well known, drastically reduces the possibility, after oral administration, of absorption of several chemotherapeutic agents (i.e. Paclitaxel, doxorubicin etc.). Since the IC50 of the tested compounds in A2780 and A2780DX, have similar values we conclude that they are not PGP substrates and they could be administrated to the patients via oral route.

Another series deals with U87MG-Luc (Glioma). The series can be described thus: Orthotopic glioma murine model (U87MG-Luc), IVIS imaging. The class given is in vivo, mice. Conditions: 100 mg/kg IP, qdx5x4w, intracranial U87MG-Luc. As for the experimental part:
Orthotopic glioma murine model. 1×10^6 Brain glioblastoma bioluminescent cells (U-87 MG) were injected intracranically and tumor growth was evaluated through IVIS imaging system.
Tumor growth was followed by biweekly measurements. […] Mice were weighed twice a week. […] Tumor growth was further followed by weekly BLI measurements. TGI was calculated as for the H460 trial.
The activity of compound 2 (RC1375) was evaluated on glioma xenograft murine models. Brain glioblastoma bioluminescent cells (U-87 MG) were injected intracranically and tumor growth was evaluated through IVIS imaging system. After a week of injection, 2 (RC1375) (100 mg/kg) was administered intraperitoneally to mice (qdx5x4w).

Consider `O=C(O)/C=C/c1ccc(-c2ccc(O)c(C34CC5CC(CC(C5)C3)C4)c2)cc1` [Adarotene, reference compound], for which the IC50 in series [1] stood at 26.9 ± 0.7 µM; in the series on MM487-Luc mesothelioma it was 9.2 ± 0.3 µM; with U87MG glioblastoma cells it was 1.63 ± 0.1 µM. For the same compound, the “resistance of H460-R9A with respect to parental H460” value in series [2] is “about 70 fold”. Also, the “BWL Day + 35” value in [3] (Adarotene 15 mg/Kg OS q7dx5x4w) amounted to 12%.

In the case of `CC(C)(Oc1ccc(-c2ccc(/C=C/C(=O)O)cc2)cc1C12CC3CC(CC(C3)C1)C2)C(=O)NO` [BIO146], in the series with Human NCI-H460 NSCLC (72 h, SRB/MTT assay), the “cytotoxic activity / IC50 range on NCI-H460 cells” value is reported as “micro molar range”.

For the compound `N.N.[Cl][Pt][Cl]` [Cisplatin, reference compound], the “TGI Day + 35” value in [3] (combination same doses) is given as 34%.

As for `O=C(O)/C=C/c1ccc(-c2ccc(OCCCC(=O)NO)c(C34CC5CC(CC(C5)C3)C4)c2)cc1` [Compound 1, 3-[3′-Adamantan-1-yl-4′-(3-hydroxycarbamoyl-propoxy)-biphenyl-4-yl]-acrylic acid], the IC50 with Human NCI-H460 NSCLC was under 5 µM; in [1] it was 8.3 ± 0.2 µM; with MM487-Luc mesothelioma it was 1.7 ± 0.08 µM; in series [4] it was 4.2 ± 0.3 µM; in [5], 3.9 ± 0.1 µM. In addition, the “RI (Resistance Index, ratio between the IC50 values of resistant and sensitive cells)” value in series [5] was 0.9.

As for `O=C(O)/C=C/c1ccc(-c2ccc(OCCCCC(=O)NO)c(C34CC5CC(CC(C5)C3)C4)c2)cc1` [Compound 2, 3-[3′-Adamantan-1-yl-4′-(4-hydroxycarbamoyl-butoxy)-biphenyl-4-yl]-acrylic acid], the melting point was 224 °C (dec.). Moreover, the IC50 in the series on Human NCI-H460 NSCLC was under 5 µM. Moreover, the IC50 in [1] came to 5.9 ± 0.1 µM. In addition, in the series on MM487-Luc mesothelioma, the IC50 is 1.9 ± 0.2 µM. Further, the concentration for half-maximal inhibition (IC50) in the series on U87MG glioblastoma cells was found to be 5.5 ± 0.9 µM. Further, the IC50 in series [4] turned out to be 3.7 ± 0.3 µM. In addition, in series [5], the “RI (Resistance Index, ratio between the IC50 values of resistant and sensitive cells)” value is listed as 1.3; the IC50 came out at 4.5 ± 0.07 µM. In addition, in the series with U87MG-Luc (Glioma) (day +35), the “BLI Average (Day)” value is 1.31 × 10^5 ± 1.26 × 10^5 p/s/cm^2/sr. In addition, the TGI in the series on U87MG-Luc (Glioma) is 72%.

In the case of `O=C(O)C=Cc1ccc(-c2ccc(OCCCCCCCC(=O)NO)c(C34CC5CC(CC(C5)C3)C4)c2)cc1` [Compound 3, 3-[3′-Adamantan-1-yl-4′-(7-hydroxycarbamoyl-heptyloxy)-biphenyl-4-yl]-acrylic acid], the IC50 with Human NCI-H460 NSCLC is at most 5 µM.

For the compound `NCCSSCCNC(=O)CCCOc1ccc(-c2ccc(/C=C/C(=O)O)cc2)cc1C12CC3CC(CC(C3)C1)C2` [Compound 4, 2-(2-{4-[3-Adamantan-1-yl-4′-(2-carboxy-vinyl)-biphenyl-4-yloxy]-butyrylamino}-ethyldisulfanyl)-ethyl-ammonium; trifluoroacetate], in the series with Human NCI-H460 NSCLC, the IC50 was at most 10 µM.

Turning to `O=C(O)/C=C/c1ccc(-c2ccc(OCCCC(=O)NCCSSCCNC(=O)C(Cc3ccc(O)c(Br)c3)=NO)c(C34CC5CC(CC(C5)C3)C4)c2)cc1` [Compound 5, 3-{3′-Adamantan-1-yl-4′-[3-(2-{2-[3-(3-bromo-4-hydroxy-phenyl)-2-hydroxyimino-propionylamino]-ethyldisulfanyl}-ethylcarbamoyl)-propoxy]-biphenyl-4-yl}-acrylic acid], the half-maximal inhibitory concentration (IC50) in the series on Human NCI-H460 NSCLC was under 5 µM.

In the case of `O=C(O)/C=C/c1ccc(-c2ccc(OC(=O)CCC(=O)NCCSSCCNC(=O)/C(Cc3ccc(O)c(Br)c3)=N/O)c(C34CC5CC(CC(C5)C3)C4)c2)cc1` [Compound 6, 3-{3′-Adamantan-1-yl-4′-[3-(2-{2-[3-(3-bromo-4-hydroxy-phenyl)-2-hydroxyimino-propionylamino]-ethyldisulfanyl}-ethylcarbamoyl)-propionyloxy]-biphenyl-4-yl}-acrylic acid], the IC50 with Human NCI-H460 NSCLC was under 0.1 µM.

As to `O=C(O)/C=C/c1ccc(-c2ccc(OCCC(=O)NO)c(C34CC5CC(CC(C5)C3)C4)c2)cc1` [Compound 12, 3-[3′-Adamantan-1-yl-4′-(2-hydroxycarbamoyl-ethoxy)-biphenyl-4-yl]-acrylic acid], the IC50 in series [1] worked out at 10.6 ± 0.3 µM.

As to `O=C(COc1ccc(-c2ccc3cc(C(=O)O)ccc3c2)cc1C12CC3CC(CC(C3)C1)C2)NOC1CCCCO1` (stereo not shown) [Compound 13, 6-{3-Adamantan-1-yl-4-[(tetrahydro-pyran-2-yloxycarbamoyl)-methoxy]-phenyl}-naphthalene-2-carboxylic acid], the IC50 in [1] is 16.9 ± 0.5 µM.

Turning to `O=C(COc1ccc(-c2ccc3cc(C(=O)O)ccc3c2)cc1C12CC3CC(CC(C3)C1)C2)NO` [Compound 14, 6-(3-Adamantan-1-yl-4-hydroxycarbamoylmethoxy-phenyl)-naphthalene-2-carboxylic acid], in series [1], the IC50 amounted to 2.3 ± 0.4 µM.

As for `NNC(=O)COc1ccc(-c2ccc(C=CC(=O)O)cc2)cc1C12CC3CC(CC(C3)C1)C2` [Compound 17, 3-(3′-adamantan-1-yl-4′-hydrazinocarbonylmethoxy-biphenyl-4-yl)-acrylic acid trifluoroacetate], the IC50 in [1] stood at 17.3 ± 1.3 µM.
